# According to patent US9701667B2, “Coumarin-based fluorogenic agents and uses thereof for specific protein labelling” (UNIVERSITY OF OTTAWA, priority 2014, dated 2017):
# “Also recorded” adds a separate entry of the source.
# Columns and labels:
# MBP-dC10α [1] = experiment: Time-dependent fluorescence increase on reaction with test protein; type: biochemical; conditions: MBP-dC10 versus GSH
# Method: (§1) Reactivity was tested through the time-dependent fluorescence increase at 37° C. using Synergy H4 Hybrid Multi-Mode Microplate Reader with excitation and emission monochromators set to 9 nm bandpass. All reactions were prepared in 50 mM HEPES buffer (pH 7.4) with 5% DMSO. Solutions of MBP-dC10α or GSH were prepared in 96-well plates and labelling reagent (YCx) in DMSO was added immediately before recording. The final concentration of labelling reagent was 25 μM, the final concentration of MBP-dC10α was 25 μM and the final concentration of GSH was 50 μM or 1 mM in 50 mM HEPES buffer (pH 7.4) with 5% DMSO. Samples were excited at 440 nm and fluorescence intensity was followed at 485 nm as a function of time.
# MBP-dC10α [2] = experiment: Fluorescence properties and fluorescence enhancement (FE) before/after labelling of model target protein; type: biochemical
# Method: For experiments described herein, maltose-binding protein (MBP) was chosen as a highly-soluble test protein and the dC10α tag was fused to its C-terminus (MBP-dC10α) as described previously (Guy, J. et al., Mol. Biosyst. 2010, 6, 976-987).
# Emission spectra and fluorescence intensity measurements were recorded at 37° C. with a Synergy H4 Hybrid Multi-Mode Microplate Reader with excitation and emission monochromators set at 9 nm bandpass. The mixture of 100 μM solution of fluorogen (YCx) and 100 μM MBP-dC10 in 50 mM HEPES buffer (pH 7.4) with 5% DMSO was incubated at 37° C. in the dark for 12 hours, after which the fluorescence emission spectrum of a dilution (25 μM final) in 50 mM HEPES buffer with 5% DMSO was recorded. The emission spectra of the corresponding labelling reagent in same solution without MBP-dC10α were also recorded. The ratio of fluorescence intensity at maximum emission gave the fluorescence enhancement (FE) ratio.
# histone H2B-dC10α [3] = experiment: No-wash intracellular labelling of histone H2B-dC10α in HEK 293T cells; type: cell-based, human; conditions: 10 μM YC20, 45 min
# Method: (§2) The no-wash fluorogenic labelling reagent YC20 was used to label cellular proteins localized in different parts of living HEK 293T cells. Histone-H2B, localized in the nuclei, and actin, localized as filaments in the cytosol, were chosen as the test proteins. […] HEK293T cells were transfected to express histone H2B-dC10α or dC10α-actin and then labeled with YC20 for 45 min and directly imaged by fluorescent microscopy without any washing steps (FIG. 13; see, also, Chen, Y. et al., Angew. Chem. Int. Ed. Engl., 2014, 53, 13785-13788, the entire contents of which are hereby incorporated by reference).
# (§3) Transfection and labelling were performed as follows: HEK 293T cells were plated into 60-mm dishes and grown in MEM supplemented with 10% FBS, 100 units/mL of penicillin and 100 μg/mL of streptomycin for 16 h before transfection. Cells were transiently transfected with plasmid DNA encoding for dC10α-actin or histone H2B-dC10α or with pcDNA3.1 (mock) using lipofectamine 2000 following manufacturer's instructions. Twenty-four or forty-eight hours after transfection, the cells were incubated with 10 μM YC20 (in Opti-MEM with 0.2% DMSO) for 45 min at 37° C. Cells were observed and imaged on a Nikon confocal microscope with a 25× objective. Images were taken and analyzed with NIS-Elements software.
# [4] = Time-dependent fluorescence increase on reaction with GSH; conditions: 25 μM fluorogen, 1 mM GSH
# Method: as §1
# dC10α-actin = biological target: T1, dC10α-actin (Homo sapiens, UniProt P60709); experiment: No-wash intracellular labelling of dC10α-actin in HEK 293T cells; type: cell-based; conditions: 10 μM YC20, 45 min
# T1 construct: expressed in transfected cells; host or cells: HEK 293T
# Method: as §2, §3
# HEK293T cells = experiment: MTT cytotoxicity assay; type: cell-based, human; conditions: 20 h incubation
# Method: 3-(4,5-Dimethylthiazol-2-yl)-2,5-diphenyl tetrazolium bromide (MTT) is a yellow tetrazolium salt and can be reduced to formazan crystals, which are insoluble in aqueous solutions, by active mitochondria in living cells. The resulting intracellular purple formazan can be dissolved in Triton X100, and therefore quantified by measuring absorption of the solution.
# Cells were seeded in a 96-well plate and incubated with 100 μL of culture medium with different amounts of the fluorogen YCx for 16 h. No fluorogen was added to the positive control and no cells were plated in the negative control. Portions of 25 μL of MTT solution (5 mg in 1 mL of Hanks' balanced salt solution) were added to the wells and the cells were further incubated at 37° C. for 4 h. Solubilization solutions (100 μL) were then added and incubated in 96-well plates at room temperature in the dark overnight. The absorption of each well was measured using a plate reader at a wavelength of 570 nm with 690 nm as a reference. Cell viability was calculated according to the following equation: Cell viability=(Awith fluorogen−Anegative control)/(Apositive control−Anegative control).
# histone H2B-dC10α [5] = experiment: Intracellular labelling of histone H2B-dC10α in HeLa cells; type: cell-based, human; conditions: 10 μM YC20, 10 minutes
# Method: HeLa cells were transfected with plasmid DNA encoding histone H2B-dC10α as described below and labelled with 10 μM YC20 for 10 minutes.
# Transfection and labelling were performed as follows: HeLa cells were propagated for 2-3 weeks until the cells were stable and healthy for the transfection and labelling experiments. Cells were plated in 35 mm culture dishes (approx. 1.3×10^5 cells/plate in 2 mL of MEM or DMEM media) and incubated at 37° C. (5% CO2) for 12-16 h, after which they were transfected with the plasmid DNA encoding for the expression of histone H2B C-terminally tagged with dC10α, using 3-fold lipofectamine […] (H2B-dC10α and 6 μg of lipofectamine). For the transfections the media was changed from MEM/DMEM to OPTI-MEM and the transfection time was 45 min. The media was then changed back to MEM/DMEM and the cells were allowed to express protein for 48 h (37° C. and 5% CO2), after which the cells were treated with the corresponding fluorogen. For FlARe labelling, cells were treated with 10 μM of YC20 in 2 mL OPTI-MEM (containing 0.02% F127 and 0.2% DMSO) and incubated at 37° C. and 5% CO2 for 10 minutes.
smiles,measurement,setting,value
"CCN(CC)c1ccc2cc(C(=O)Nc3cc(N4C(=O)C=C(OC)C4=O)cc(N4C(=O)C=C(OC)C4=O)c3)c(=O)oc2c1 [YC20, N-(3,5-bis(3-methoxy-2,5-dioxo-2,5-dihydro-1H-pyrrol-1-yl)phenyl)-7-(diethylamino)-2-oxo-2H-chromene-3-carboxamide]",selectivity of labelling target protein over GSH,MBP-dC10α [1],most selective labelling reagent
same,fluorescence intensity change (fluorescence enhancement),"MBP-dC10α [2]; after labelling with MBP-dC10, λex = 440 nm",29 fold
same,fluorescence after the labelling reaction,MBP-dC10α [2]; after reaction with MBP-dC10α,strong fluorescence
same,background (intrinsic) fluorescence before labelling / quenching,MBP-dC10α [2]; fluorogen without target protein,negligible background fluorescence
same,labelling of histone H2B-dC10α (cyan channel),histone H2B-dC10α [3],only the nuclei were fluorescently labeled
same,reaction with high concentration (large excess) of GSH,[4],extremely slow; also recorded: did not give any fluorescence signal
same,fluorescence in pcDNA transfected (mock) cells,dC10α-actin; HEK 293T mock cells,negligible fluorescence
same,labelling of dC10α-actin (cyan channel),dC10α-actin; HEK 293T,filament structures in the cytosol were clearly visible
same,"cytotoxicity (cell viability, MTT)",HEK293T cells,neither showed any cytotoxicity up to 100 μM
same,labelling of histone H2B-dC10α (cyan channel),histone H2B-dC10α [5],nuclei were strongly fluorescently labeled
